According to patent US8575112B2, “Small peptide modulators of potassium channel trafficking” (University of Houston System, priority 2009, dated 2013):

Experiments:
Format in all cases: cell-based
[1] = test system: endogenous Ca2+-activated K+ channels (BKCa) in podocytes; assay: Whole-cell recordings from differentiated mouse podocytes after peptide delivery
Protocol: FIG. 7A depicts whole cell recording analyses are carried out in differentiated mouse podocytes treated with either R-PE (control) or IREVEDEC (SEQ ID NO: 9) peptides. The recording electrode contained free Ca^2+ of 5 μM and currents are evoked by a series of depolarizing steps from a holding potential of −60 mV. Representative whole-cell current traces are shown above bar graphs Left: R-PE control (Ctrl); Right: IREVEDEC (SEQ ID NO: 9) peptides. […] Asterisk indicates p<0.05.
(§1) HEK293T (human embryonic kidney) cells were grown in Dulbecco's modified Eagle's medium (Invitrogen) containing heat-inactivated 10% fetal bovine serum (FBS) and penicillin-streptomycin (Invitrogen) at 37° C. in a 5% CO2 incubator. Cells were transiently transfected for 24 to 48 hours using Lipofectamine 2000 (Invitrogen) in the serum-reduced medium OPTI-MEM, Invitrogen) following the manufacturer's instructions. The immortalized and undifferentiated mouse podocyte cell line was grown in RPMI1640 with 10% FBS supplied with 10 U/mL interferon-g (INF-γ) at 33° C. in a 5% CO2 incubator. Podocytes' differentiation was induced by removing INF-γ and switching to 37° C. in a 5% CO2 incubator for 14 days.
Whole cell recordings were performed in HEK293T transiently expressing different Slo1 constructs using standard methods. […]

[2] = test system: heterologously and endogenously expressed Slo1 channels; assay: Intracellular delivery of VEDEC-motif peptides, surface expression of Slo1 channels (summary statement); settings: intracellular delivery of peptide
Slo1VEDEC = assay: Cell-surface biotinylation assay, HEK293T cells expressing Myc-Slo1VEDEC, after peptide delivery; settings: HEK293T cells expressing Myc-tagged Slo1VEDEC, 1 mg peptide delivered with PULSin, compared to R-PE control
Protocol: as §1
(§2) Cell-surface biotinylation was carried out by labeling cells with 1 mg/mL EZ-Link Sulfo-NHS-Biotin reagents (Pierce) in PBS (137 mM NaCl, 10 mM Phosphate, 2.7 mM KCl, pH 7.4) at 4 C with gentle shaking for 1.5 hours, which was followed by incubating the labeled cells in the cold PBS containing 100 mM glycine for additional 20 minutes at 4° C. to stop the reaction. […]
(§3) All samples were loaded and separated on 10% SDS-PAGE. […] Slo1 proteins were detected by primary antibodies, including mouse anti-Myc, mouse anti-HA, rabbit anti-VEDEC, rabbit anti-QEERL, and rabbit anti-Slo1 (APC107, Alomone labs) antibodies, as indicated. […]

Slo1QEERL = assay: Cell-surface biotinylation assay, HEK293T cells expressing Myc-Slo1QEERL, after peptide delivery; settings: HEK293T cells expressing Myc-tagged Slo1QEERL by itself; 1 mg peptide delivered with PULSin; compared to R-PE control
Protocol: as §1, §2, §3

IREVEDEC (Octopetide modulator of Calcium activated Potassium channels) [NH2-IREVEDEC-COOH, octopeptide containing the VEDEC motif, synthesized by Peptide 2.0]
current through Ca2+-activated K+ channels (current density at +60 mV) ([1]; differentiated mouse podocytes, 3 mg octopeptide with PULSin, electrode free Ca2+ 5 μM, vs R-PE control, n=33 cells, p<0.05): large increase | activation or deactivation kinetics of macroscopic currents ([1]; mouse podocytes, whole-cell recording, data not shown): does not alter | surface expression of heterologously and endogenously expressed Slo1 (BKCa) channels [2]: increase | total expression of Slo1VEDEC (Slo1VEDEC): no effect | surface expression of Slo1VEDEC (Slo1VEDEC; densitometry of immunoblots): increases | surface expression of Slo1QEERL (Slo1QEERL): no effect | total expression of Slo1QEERL (Slo1QEERL): no effect
